# Laboratory results: patent US20220289728A1, “MODULATORS OF TREX1” (Constellation Pharmaceuticals, Inc., priority 2019, published 2022)
# Legend:
# full length human TREX1 = target: T1, full length human TREX1 (Homo sapiens, UniProt Q9NSU2); experiment: TREX1 Biochemical Assay (fluorescence, dsDNA substrate degradation); details: 150 pM TREX1, 60 nM dsDNA substrate, 25 minutes at room temperature
# T1 construct: N-terminally His-Tev tagged full length human TREX1; His-TEV (His tag with TEV site) (N); made in house; host or cells: E. coli
# T1 sequence (Q9NSU2 1-314): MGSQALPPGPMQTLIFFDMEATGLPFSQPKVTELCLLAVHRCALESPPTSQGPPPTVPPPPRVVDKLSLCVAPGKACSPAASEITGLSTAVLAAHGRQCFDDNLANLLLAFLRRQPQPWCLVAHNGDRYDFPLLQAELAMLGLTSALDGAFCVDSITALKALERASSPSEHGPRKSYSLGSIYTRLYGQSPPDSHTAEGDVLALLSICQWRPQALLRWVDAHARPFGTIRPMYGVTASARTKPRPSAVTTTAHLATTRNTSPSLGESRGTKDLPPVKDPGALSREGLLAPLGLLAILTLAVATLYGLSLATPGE
# Method: Degradation of the dsDNA liberates free fluorophore to produce a fluorescent signal. Specifically, 7.5 μL of N-terminally His-Tev tagged full length human TREX1 (expressed in E. coli and purified in house) in reaction buffer (50 mM Tris (pH 7.4), 150 mM NaCl, 2 mM DTT, 0.1 mg/mL BSA, 0.01% (v/v) Tween-20 and 100 mM MgCl2) was added to a 384-well Black ProxiPlate Plus (Perkin Elmer) which already contained compound (150 nL) at varying concentrations as a 10 point dose-response in DMSO. To this was added 7.5 μL of dsDNA substrate (Strand A: 5′ TEX615/GCT AGG CAG 3′; Strand B: 5′ CTG CCT AGC/IAbRQSp (Integrated DNA Technologies)) in reaction buffer. Final concentrations were 150 pM TREX1, 60 nM dsDNA substrate in reaction buffer with 1.0% DMSO (v/v). After 25 minutes at room temperature, reactions were quenched by the addition of 5 μL of stop buffer (same as reaction buffer plus 200 mM EDTA). Final concentrations in the quenched reaction were 112.5 pM TREX1, 45 nM DNA and 50 mM EDTA in a volume of 20 μL. After a 5-minute incubation at room temperature, plates were read in a laser sourced Envision (Perkin-Elmer), measuring fluorescence at 615 nm following excitation w/570 nm light. IC50 values were calculated by comparing the measured fluorescence at 615 nm ratio relative to control wells pre-quenched w/stop buffer (100% inhibition) and no inhibitor (0% inhibition) controls as using non-linear least square four parameter fits and either Genedata or GraphPad Prism (GraphPad Software, Inc.).
# HCT116 dual cells = experiment: HCT116 Cell Assay (Lucia luciferase reporter of Type I interferon induction); type: cell-based, human; details: pBR322/BstNI DNA transfection, Lucia luciferase at 48 h, relative to 10 uM compound 39
# Description: HCT116 dual cells (Invivogen, San Diego, Calif., USA) are derived from the human HCT116 colorectal carcinoma cell line. Cells have been selected for the stable integration of SEAP and Luciferase reporter genes, which expression is under the control of 5 tandem response elements for NF-KB/AP1 and STAT1/STAT2, respectively. The cell line was used to monitor Type I interferon induction and subsequent signaling by measuring the activity of the Lucia luciferase secreted in the culture medium.
# HCT116 cells were plated in 96-well plate(s) at 40,000 cells/well in 100 uL DMEM supplemented with 10% FBS and 25 mM Hepes (pH 7.2-7.5). After overnight settling, cells were treated with TREX1i for 4 h (maximum DMSO fraction was 0.1%) before 1.25 ug/mL pBR322/BstNI restriction digest (New England Biolabs, Ipswich, Mass., USA) was transfected with Lipofectamine LTX (ThermoFisher, Grand Island, N.Y., USA), according to product manual recommendations. Briefly, Lipofectamine LTX (0.4 uL/well) was diluted in OptiMEM (5 uL/well). pBR322/BstNI (100 ng/well) was diluted in OptiMEM (5 uL/well) before Plus reagent (0.1 uL/100 ng DNA) was added. After 5 min incubation at room temperature, the DNA mixture was mixed dropwise with the diluted Lipofectamine LTX. After an additional 10 min incubation, the transfection mix (10 uL/well) was added to the cells. Cells were maintained at 37° C. for 48 h before monitoring the Lucia Luciferase activity from the cell culture medium. EC50 values were calculated by comparing the measured luminescence relative to 10 uM compound 39 (100% inhibition) and no inhibitor (0% inhibition) controls using non-linear least-squares four parameter fits in either Genedata Screener or GraphPad Prism (GraphPad Software, Inc.).
# [1] = target: T2, human TREX2 (residues M44-A279) (Homo sapiens, UniProt Q9BQ50); experiment: TREX2 Biochemical Assay (fluorescence, dsDNA substrate degradation); details: 2.5 nM TREX2, 60 nM dsDNA substrate, 25 minutes at room temperature
# T2 construct: human TREX2 (residues M44-A279, expressed in E. coli); His-TEV (His tag with TEV site) (N); made in house; host or cells: E. coli
# T2 sequence (Q9BQ50 44-279 isoform Q9BQ50-1): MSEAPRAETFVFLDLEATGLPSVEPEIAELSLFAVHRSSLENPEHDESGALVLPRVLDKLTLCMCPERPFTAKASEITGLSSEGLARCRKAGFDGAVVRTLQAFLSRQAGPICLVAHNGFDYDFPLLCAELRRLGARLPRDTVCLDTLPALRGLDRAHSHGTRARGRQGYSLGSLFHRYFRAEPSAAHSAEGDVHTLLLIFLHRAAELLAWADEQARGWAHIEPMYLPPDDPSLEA
# Method: Degradation of the dsDNA liberates free fluorophore to produce a fluorescent signal. Specifically, 7.5 μL of N-terminally His-Tev tagged human TREX2 (residues M44-A279, expressed in E. coli and purified in house) in reaction buffer (50 mM Tris (pH 7.4), 150 mM NaCl, 2 mM DTT, 0.1 mg/mL BSA, 0.01% (v/v) Tween-20 and 100 mM MgCl2) was added to a 384-well Black ProxiPlate Plus (Perkin Elmer) which already contained compound (150 nL) at varying concentrations as a 10 point dose-response in DMSO. To this was added 7.5 μL of dsDNA substrate (Strand A: 5′ TEX615/GCT AGG CAG 3′; Strand B: 5′ CTG CCT AGC/IAbRQSp (IDT)) in reaction buffer. Final concentrations were 2.5 nM TREX2, 60 nM dsDNA substrate in reaction buffer with 1.0% DMSO (v/v). After 25 minutes at room temperature, reactions were quenched by the addition of 5 μL of stop buffer (same as reaction buffer plus 200 mM EDTA). Final concentrations in the quenched reaction mixture were […] TREX2, 45 nM DNA and 50 mM EDTA in a volume of 20 μL. After a 5-minute incubation at room temperature, plates were read in a laser sourced Envision (Perkin-Elmer), measuring fluorescence at 615 nm following excitation w/570 nm light. IC50 values were calculated by comparing the measured fluorescence at 615 nm ratio relative to control wells pre-quenched w/stop buffer (100% inhibition) and no inhibitor (0% inhibition) controls as using non-linear least square four parameter fits and either Genedata or GraphPad Prism (GraphPad Software, Inc.).
# [2] = Homo sapiens, HCT-116, 4 h pre-treatment
SMILES,IC50 (full length human TREX1) [nM],EC50 (HCT116 dual cells; 4 h pre-treatment) [nM],IC50 [1] [nM],EC50 (HCT116 dual cells; [2]) [nM]
"CN(c1nc(C(=O)Nc2cnoc2)c(O)c(=O)n1C)C(c1ccccc1)c1cccc(C#N)c1 (single isomer, unassigned) [Example 51]",< 100,1000 to 10000,< 1000,
CN(c1nc(C(=O)Nc2cnoc2)c(O)c(=O)n1C)C(C)(c1ccccc1)c1ccccc1 [Example 52],< 100,,1000 to 10000,10000 to 100000
CN(Cc1cccnc1-c1cccc(Cl)c1)c1nc(C(=O)Nc2cnoc2)c(O)c(=O)n1C [Example 20],100 to 1000,,1000 to 10000,
"CN(c1nc(C(=O)Nc2cnoc2)c(O)c(=O)n1C)C(c1ccccc1)c1ccccn1 (single isomer, unassigned) [Example 42]",< 100,1000 to 10000,1000 to 10000,
"CN(c1nc(C(=O)Nc2cnoc2)c(O)c(=O)n1C)C(c1ccccc1)c1ccccc1C#N (single isomer, unassigned) [Example 86]",< 100,< 1000,< 1000,
CN(Cc1ccccc1Cl)c1nc(C(=O)Nc2cnoc2)c(O)c(=O)n1C [Example 74],< 100,,1000 to 10000,1000 to 10000
"CN(c1nc(C(=O)Nc2cnoc2)c(O)c(=O)n1C)C(c1ccccn1)c1ccccc1Cl (single isomer, unassigned) [Example 57]",< 100,< 1000,< 1000,
"CCN(c1nc(C(=O)Nc2cnoc2)c(O)c(=O)n1C)C(c1ccccc1)c1ccccc1Cl (single isomer, unassigned) [Example 92]",< 100,1000 to 10000,< 1000,
CN(Cc1ccccc1-c1cnn(C)c1)c1nc(C(=O)Nc2cnoc2)c(O)c(=O)n1C [Example 78],< 100,,1000 to 10000,10000 to 100000
CN(Cc1ccc(Cl)cc1Cl)c1nc(C(=O)Nc2cnoc2)c(O)c(=O)n1C [Example 6],< 100,,1000 to 10000,1000 to 10000
CN(Cc1cccc(Cl)c1)c1nc(C(=O)Nc2cnoc2)c(O)c(=O)n1C [Example 8],< 100,,1000 to 10000,1000 to 10000
"CC(c1c(Cl)cccc1Cl)N(C)c1nc(C(=O)Nc2cnoc2)c(O)c(=O)n1C (single isomer, unassigned) [Example 70]",< 100,,< 1000,1000 to 10000
"Cc1ncc(C(c2ccccc2Cl)N(C)c2nc(C(=O)Nc3cnoc3)c(O)c(=O)n2C)cn1 (single isomer, unassigned) [Example 81]",< 100,,< 1000,< 1000
CC(C)N(Cc1ccccc1)c1nc(C(=O)Nc2cnoc2)c(O)c(=O)n1C [Example 29],< 100,,1000 to 10000,10000 to 100000
"CN(c1nc(C(=O)Nc2cnoc2)c(O)c(=O)n1C)C(c1ccccn1)c1c(Cl)cccc1Cl (single isomer, unassigned) [Example 61]",< 100,< 1000,< 1000,
CN(Cc1ccncc1)c1nc(C(=O)Nc2cnoc2)c(O)c(=O)n1C [Example 37],100 to 1000,,10000 to 100000,
Cc1csc(CN(C)c2nc(C(=O)Nc3cnoc3)c(O)c(=O)n2C)n1 [Example 38],100 to 1000,,1000 to 10000,
CN(C)C(=O)c1ccccc1CN(C)c1nc(C(=O)Nc2cnoc2)c(O)c(=O)n1C [Example 75],100 to 1000,,10000 to 100000,
CN(C)C(=O)c1cccc(CN(C)c2nc(C(=O)Nc3cnoc3)c(O)c(=O)n2C)c1 [Example 77],100 to 1000,,10000 to 100000,
CN(C)C(=O)c1ccc(CN(C)c2nc(C(=O)Nc3cnoc3)c(O)c(=O)n2C)cc1 [Example 76],100 to 1000,,10000 to 100000,
"Cc1ncc(C(c2ccccc2Cl)N(C)c2nc(C(=O)Nc3cnoc3)c(O)c(=O)n2C)cn1 (single isomer, unassigned) [Example 82]",> 10000,,> 100000,
CN(c1nc(C(=O)Nc2cnoc2)c(O)c(=O)n1C)C1CCCCC1 [Example 72],100 to 1000,,1000 to 10000,
CN(CCc1ccccc1)c1nc(C(=O)Nc2cnoc2)c(O)c(=O)n1C [Example 3],100 to 1000,,10000 to 100000,
CN(Cc1cncnc1)c1nc(C(=O)Nc2cnoc2)c(O)c(=O)n1C [Example 34],100 to 1000,,10000 to 100000,
CN(Cc1ccccc1-c1cccc(Cl)c1)c1nc(C(=O)Nc2cnoc2)c(O)c(=O)n1C [Example 17],< 100,,1000 to 10000,
CN(Cc1ccc(C(F)(F)F)cc1)c1nc(C(=O)Nc2cnoc2)c(O)c(=O)n1C [Example 12],100 to 1000,,10000 to 100000,
CC(=O)N1CCC(N(C)c2nc(C(=O)Nc3cnoc3)c(O)c(=O)n2C)CC1 [Example 73],100 to 1000,,10000 to 100000,
CN(Cc1cnn(C)c1)c1nc(C(=O)Nc2cnoc2)c(O)c(=O)n1C [Example 33],100 to 1000,,10000 to 100000,
CN1CCC(C(c2ccccc2)N(C)c2nc(C(=O)Nc3cnoc3)c(O)c(=O)n2C)CC1 (stereo not drawn) [Example 49],100 to 1000,,10000 to 100000,
